From patent US4316957A, “Process for the production of 7-deazaadenosine and 7-deazainosine” (Abbott Laboratories, priority 1977, dated 1982)
Converted amounts (≈) assume the structure as drawn. Read-outs that look alike come from different tables or passages of the source.

What was measured:
[1] = tested on: Bacillus subtilis KY 4273; experiment: Antibacterial spectrum by agar dilution method (pH 7.0); assay type: cell-based
Text: (§1) The antibacterial spectra of 7-deazaadenosine and 7-deazainosine against various microorganisms by agar dilution method (pH 7.0) are shown in the following Table 3.

[2] = tested on: Comamonas terrigena KY 4174; experiment: as above; assay type: cell-based
Text: as §1

Escherichia coli KY 4271 = experiment: as above; assay type: cell-based
Text: as §1

[3] = tested on: Mycobacterium phlei KY 3486; experiment: as above; assay type: cell-based; details: Mycolicibacterium phlei
Text: as §1

[4] = tested on: Mycobacterium smegmatis KY 3848; experiment: as above; assay type: cell-based; details: Mycolicibacterium smegmatis
Text: as §1

[5] = tested on: Pseudomonas alcaligenes KY 4656; experiment: as above; assay type: cell-based; details: Aquipseudomonas alcaligenes
Text: as §1

Solubility = assay type: physicochemical

| Compound | MIC ([1]; Bacillus subtilis, KY4273, pH 7) [µg/mL] | MIC ([2]; Comamonas terrigena, KY4174, pH 7) [µg/mL] | MIC (Escherichia coli KY 4271; Escherichia coli, KY4271, pH 7) [µg/mL] | MIC ([3]; KY3486, pH 7) [µg/mL] | MIC ([4]; KY3848, pH 7) [µg/mL] | MIC ([5]; KY4656, pH 7) [µg/mL] | Solubility (Solubility; in hexane, benzene and ether) | Solubility (Solubility; in methanol) | Solubility (Solubility; in water) | MIC ([1]; KY4273, Bacillus subtilis KY 4273, agar dilution, pH 7.0, read-out: MIC) [µg/mL] | MIC ([2]; KY4174, Comamonas terrigena KY 4174, agar dilution, pH 7.0, read-out: MIC) [µg/mL] | MIC (Escherichia coli KY 4271; KY4271, Escherichia coli KY 4271, agar dilution, pH 7.0, read-out: MIC) [µg/mL] | MIC ([3]; KY3486, Mycobacterium phlei KY 3486, agar dilution, pH 7.0, read-out: MIC) [µg/mL] | MIC ([4]; KY3848, Mycobacterium smegmatis KY 3848, agar dilution, pH 7.0, read-out: MIC) [µg/mL] | MIC ([5]; KY4656, Pseudomonas alcaligenes KY 4656, agar dilution, pH 7.0, read-out: MIC) [µg/mL] |
| --- | --- | --- | --- | --- | --- | --- | --- | --- | --- | --- | --- | --- | --- | --- | --- |
| Nc1ncnc2c1ccn2[C@@H]1O[C@H](CO)[C@@H](O)[C@H]1O [7-Deazaadenosine, 7-deazaadenosine] | 100 (≈ 376 µM) | 10 (≈ 37.6 µM) | > 100 | < 0.045 | 20 (≈ 75.1 µM) | 10 (≈ 37.6 µM) | insoluble | poorly soluble | Soluble | – | – | – | – | – | – |
| O=c1[nH]cnc2c1ccn2[C@@H]1O[C@H](CO)[C@@H](O)[C@H]1O [7-Deazainosine, 7-deazainosine] | – | – | – | – | – | – | insoluble | poorly soluble | Soluble | > 100 | 40 (≈ 150 µM) | > 100 | < 0.045 | > 100 | 40 (≈ 150 µM) |
